Literature values as cited in patent US20080044439A1, “Compositions and Methods for Preventing and Treating Skin and Hair Conditions” (priority 2004, published 2008).

Tested on: albino guinea pigs

In the case of CC(C)Cn1cnc2c(N)nc3ccccc3c21 [imiquimod], the “fading the tattoo, macroscopically and histologically” value (5 percent cream applied every 6 hours for seven days, evaluated at seven and 28 days after tattoo placement, compared with petrolatum, tretinoin 0.025 percent, tretinoin alternated with imiquimod) is listed as “most effective regimen for fading the tattoo” and the “biopsy evaluation of the treated site” value (guinea pig, in vivo) is listed as “epidermal and dermal necrosis with separation, severe inflammation and fibrosis, and disruption of the skin appendages”.
